The source of these data is paper PMC7007292 (Oncotarget, 2020).

One data set concerns ACP-03 cells. As to the kind of experiment: Growth inhibition assay (resazurin). The format is cell-based, human. Particulars: 2D culture, 72 h, value (± SD). Background: Alamar Blue is a resazurin reagent that responds to reducing activity.
Data set [1] relates to AGP-01 cells. The data set is described as follows: Growth inhibition assay (resazurin). Particulars: 2D culture, 72 h, value (± SD).
Another data set relates to ACP-02 cells. As to the kind of experiment: Growth inhibition assay (resazurin). It is filed as cell-based, human. Particulars: 2D culture, 72 h, value (± SD).
Data set [2] deals with GC cell lines (AGP-01, ACP-02, ACP-03). The data set is described as follows: Growth inhibition assay, all GC cell lines. The format is cell-based, human. On the procedure:
All cell lines were cultured in Dulbecco’s Modified Eagle Medium, high Glucose (4.5 g/L), with Sodium Pyruvate and L-glutamin] (DMEM, Lonza, UK), containing 10% foetal bovine serum (FBS) (Invitrogen, USA), 1% antibiotic with 100 IU/ml Penicillin and 100 ug/ml Streptomycin (Invitrogen, USA). The culture medium was changed 2 to 3 times a week and cells were passaged using trypsin/EDTA (Invitrogen, USA).
Resarzurin was used for growth inhibition assays. Briefly, cells (300/well) were plated in 384-well flat-bottomed plates and cultured for 24 h. […] All the following in vitro experiments were performed on metastatic AGP-01 cells.

Data set [3] concerns AGP-01 cells. As to the kind of experiment: Microfilament analysis (cortical actin, confocal). It is filed as cell-based, human.
Description: Between each step described above, cells were washed three times with PBS for 5 min at 37°C. […] Images were capture by a laser confocal microscope at 40× (Zeiss, Germany). Image analysis of actin fibers was performed using Acapella (Perkin Elmer). Nuclei were automatically segmented using DAPI channel. Cells were segmented using both DAPI and Actin channels. Dense actin was defined by thresholding to find pixels that were much brighter than their surrounding in the membrane region. The area of dense actin in the membrane region was calculated and normalized to the cell area. Similarly the actin intensity in the membrane region was measured and normalized to the cell area.
The next data set relates to kinase targets. Conditions: cited from earlier work.
Data set [4] concerns AGP-01 cells. As to the kind of experiment: Morphological analysis. It is filed as cell-based, human. Conditions: 100 nM, 500 nM, 1 μM, 24 h.
The test system of data set [5] is AGP-01 cells. The data set is described as follows: Cell invasion assay (ECM coated inserts). The format is cell-based, human. Conditions: 100 nM, 500 nM, 1 μM, 24 h, legend 8 h. On the procedure:
Cell migration assays were performed using an IncuCyte® life-cell analysis system (Essen Bioscience, USA). […] Images were captured every 2 h for 48 h and evaluated using the InCucyte® software where the wound width was calculated and expressed as percent relative to the control (0.1% DMSO). Cell invasion was assessed by using the cell invasion assay. A 24-well tissue culture plate (Corning) with cell culture inserts which contained an 8 μm pore size polycarbonate membrane was used. […] After 8 h incubation, cells were removed from the inner surface of the insert using a cotton-tipped swab. […] The number of migrating cells per insert was captured by the Operetta System (Perkin Elmer) and counted automatically.

Data set [6] has as its system peritoneal metastasis of GC. Conditions: xenograft mouse model; oral and intraperitoneal administration; cited from earlier work.
The next data set deals with kinases. Particulars: beside BCR-ABL and SRC; cited from earlier work.
Another data set relates to GC patients. Conditions: cited from earlier work; for beneficial effects in clinical trials: NCT00215995, NCT00595985, NCT00725712.

Entries after “also recorded” stand apart in the source; their conditions may differ. Where two headings read alike, the source gives them in different places. Where only a bound is given, the exact number is not on record here.

Consider `Cc1ccc(Nc2nccc(N(C)c3ccc4c(C)n(C)nc4c3)n2)cc1S(N)(=O)=O` [Pazopanib], for which the IC50 in the data set on ACP-03 cells (Homo sapiens), with AGP-01 cells [1] and in the data set on ACP-02 cells (Homo sapiens) was > 20 µM throughout.
With `CCCS(=O)(=O)Nc1ccc(F)c(C(=O)c2c[nH]c3ncc(-c4ccc(Cl)cc4)cc23)c1F` [Vemurafenib], the IC50 with ACP-03 cells (Homo sapiens), in the data set with AGP-01 cells [1] and with ACP-02 cells (Homo sapiens) was > 20 µM each time.
For `Cc1ccc(NC(=O)c2ccc(CN3CCN(C)CC3)cc2)cc1Nc1nccc(-c2cccnc2)n1` [imatinib], the antiproliferative effect entry in [2] was “no proliferation inhibition was observed”.
Turning to `CO[C@H]1C[C@@H]2CC[C@@H](C)[C@@](O)(O2)C(=O)C(=O)N2CCCC[C@H]2C(=O)O[C@H]([C@H](C)C[C@@H]2CC[C@@H](OCCO)[C@H](OC)C2)CC(=O)[C@H](C)/C=C(\C)[C@@H](O)[C@@H](OC)C(=O)[C@H](C)C[C@H](C)/C=C/C=C/C=C/1C` [Everolimus], the IC50 in the data set on ACP-03 cells (Homo sapiens), with AGP-01 cells [1] and in the data set on ACP-02 cells (Homo sapiens) was > 20 µM in each case.
For the compound `Cc1nc(Nc2ncc(C(=O)Nc3c(C)cccc3Cl)s2)cc(N2CCN(CCO)CC2)n1` [Dasatinib], in the data set with AGP-01 cells [3] (confocal imaging, 100 nM, 500 nM, 1 μM, 24 h), the “cortical actin in the membrane region” value is recorded as “significant increase”. In addition, the “area of cortical actin” value in the data set with AGP-01 cells [3] (single cells, p-value < 0.01) is recorded as “significantly higher”. For the same compound, in the data set with AGP-01 cells [3] (single cells, p-value < 0.01), the “intensity of cortical actin” value is on record as “significantly higher”. Besides, the “number of targets identified” value with kinase targets is recorded as 72. Also, in the data set on AGP-01 cells [4], the “morphology of the cells” value was “morphological changes”. Besides, in the data set with AGP-01 cells [5], the cell invasion result is “significantly inhibited; also recorded: Inhibition of cell invasion and migration”. Further, the IC50 – broadly, the concentration that gives 50% inhibition – with AGP-01 cells [1] stood at 0.35 µM; in [2] (72 h incubation), 1 µM; with ACP-02 cells (Homo sapiens), 1.02 µM. Moreover, in [6], the “peritoneal metastasis of GC” value is recorded as “suppressing peritoneal metastasis of GC”. In the data set on kinases, the “number of additional kinases identified as targets” value is given as ~40.
On to `CC[C@@H]1/C=C(\C)C[C@H](C)C[C@H](OC)[C@H]2O[C@@](O)(C(=O)C(=O)N3CCCC[C@H]3C(=O)O[C@H](/C(C)=C/[C@@H]3CC[C@H](Cl)[C@H](OC)C3)[C@H](C)[C@@H](O)CC1=O)[C@H](C)C[C@@H]2OC` [Pimecrolimus], for which the IC50 in the data set with ACP-03 cells (Homo sapiens), in the data set with AGP-01 cells [1] and in the data set on ACP-02 cells (Homo sapiens) was > 20 µM in each case.
As to `C=CCN(/C=C1/C(=O)O[C@H](COC)[C@@]2(C)C1=C(O)C(=O)C1=C2[C@H](OC(C)=O)C[C@]2(C)C(=O)CC[C@@H]12)CC=C` [PX-866], the IC50 with ACP-03 cells, with AGP-01 cells [1] and in the data set on ACP-02 cells was > 20 µM throughout.
Consider “ramucirumab: VEGFR2 inhibitor approved as second line treatment of GC”, for which the “median OS” value in the data set with GC patients (second line, alone or with paclitaxel, local relapsed or metastatic GC) is on record as “improvement on median OS”.
`CCN(CC)CCNC(=O)c1c(C)[nH]c(/C=C2\C(=O)Nc3ccc(F)cc32)c1C` [Sunitinib]: the IC50 in the data set on ACP-03 cells (Homo sapiens) was 1.97 µM; with AGP-01 cells [1], 1.53 µM. In addition, the “beneficial effects in clinical trials” value in the data set on GC patients is reported as “failed to show beneficial effects”.
Consider `CS(=O)(=O)CCNCc1ccc(-c2ccc3ncnc(Nc4ccc(OCc5cccc(F)c5)c(Cl)c4)c3c2)o1` [lapatinib], for which, in the data set with GC patients, the “beneficial effects in clinical trials” value is listed as “failed to show beneficial effects”.
In the case of `CN1CCN(CCOc2cc(OC3CCOCC3)c3c(Nc4c(Cl)ccc5c4OCO5)ncnc3c2)CC1` [Saracatinib], the IC50 in the data set on ACP-03 cells (Homo sapiens) stood at 2.8 µM; with AGP-01 cells [1], 2.38 µM; in the data set on ACP-02 cells (Homo sapiens), 5.94 µM.
For `COc1cc2c(Oc3ccc(NC(=O)C4(C(=O)Nc5ccc(F)cc5)CC4)cc3F)ccnc2cc1OCCCN1CCOCC1` [GSK1363089], the “beneficial effects in clinical trials” value in the data set on GC patients was “failed to show beneficial effects”.
`COc1cc2c(Nc3ccc(Br)cc3F)ncnc2cc1OCC1CCN(C)CC1` [Vandetanib]: the IC50 in the data set with ACP-03 cells (Homo sapiens), in the data set with AGP-01 cells [1] and with ACP-02 cells (Homo sapiens) was > 20 µM in each case.
On to `N#CC[C@H](C1CCCC1)n1cc(-c2ncnc3[nH]ccc23)cn1` [Ruxolitinib], for which the IC50 with ACP-03 cells (Homo sapiens), with AGP-01 cells [1] and in the data set with ACP-02 cells (Homo sapiens) was > 20 µM throughout.
For the compound `Cc1cn(-c2cc(NC(=O)c3ccc(C)c(Nc4nccc(-c5cccnc5)n4)c3)cc(C(F)(F)F)c2)cn1` [nilotinib], the antiproliferative effect result in data set [2] (GC cell lines, 72 h incubation) is “no proliferation inhibition was observed”.
With `COc1cc2nccc(Oc3ccc(NC(=O)Nc4cc(C)on4)c(Cl)c3)c2cc1OC` [Tivozanib], the IC50 with ACP-03 cells (Homo sapiens), in the data set on AGP-01 cells [1] and in the data set with ACP-02 cells (Homo sapiens) was > 20 µM in each case.
Regarding `N#CC1(c2ccc(NC(=O)c3cccnc3NCc3ccncc3)cc2)CCCC1` [apatinib], the “median OS and progression free survival” value with GC patients (third line therapy for GC) is reported as “significant benefit”.
